Like-named read-outs stand apart in the source and are kept apart here.
Legend:
[1] = mouse, in vivo
Experimental: (§1) Briefly, the right common carotid of ketamine/xylazine (140/8 mg/kg i.p.) anesthetized mice was exposed and ligated at the level of the bifurcation of the common carotid, rostral to the occipital artery. The common carotid was then catheterized rostrally with polyethylene tubing filled with heparin (25 U/ml) and mounted on a 26-gauge needle. […] Prior to the perfusion, the contralateral blood flow contribution was eliminated by severing heart ventricles. […] Mice were then decapitated to terminate perfusion and the right hemisphere was isolated on ice before being subjected to capillary depletion.
(§2) After perfusion, the brain was further perfused for 60 sec with Ringer solution to wash the excess of radiolabeled molecules and then the right hemisphere was isolated on ice before being subjected to capillary depletion.

[2] = system: HCC1954 breast cancer cell line; test: In vitro cytotoxicity, HCC1954; format: cell-based
[3] = system: RBE4 endothelial cells from rat brain; test: Cell proliferation assay, RBE4; format: cell-based; conditions: read-out: IC50, effect on cell proliferation
[4] = system: MDA-MB-231 breast cancer cell line; test: In vitro cytotoxicity, MDA-MB-231; format: cell-based
U-118 glioblastoma cells = test: Cell proliferation assay ([3H]-thymidine incorporation), U-118; format: cell-based; conditions: read-out: IC50, effect on cell proliferation
NCI-H460 cell-cycle = test: NCI-H460 cell cycle measured by FACS; format: cell-based; conditions: NCI-H460, 24 hrs; Taxol 100 nM, TxlAn2 conjugate 30 nM
[5] = Preliminary comparative toxicity in beagle dogs
[6] = system: MDA-MB-468 breast cancer cell line; test: In vitro cytotoxicity, MDA-MB-468; format: cell-based
[7] = system: NCI-H460 lung carcinoma cells; test: Cell proliferation assay ([3H]-thymidine incorporation), NCI-H460; format: cell-based; conditions: for IC50: Homo sapiens
[8] = system: NCI-H460 subcutaneous tumor; test: Subcutaneous NCI-H460 tumor growth; format: in vivo, mice; conditions: i.v.
Experimental: Briefly, mice received a subcutaneous injection of 2.5×10^6 human U87 glioma cells or NCI-H460 cells. […] Treatments were then administered twice a week until animals were sacrificed. Mice were monitored every day for clinical symptoms and weight loss. Tumor volume was estimated with a kaliper and the following equation (tumor volume=π/2×(length (mm)×width^2 (mm)).
In the first subcutaneous tumor growth study, NCI-H460 cells were implanted in mice right flank (FIG. 22A).

[9] = system: A549 lung carcinoma cells; test: Cell proliferation assay ([3H]-thymidine incorporation), A549; format: cell-based; conditions: Homo sapiens, read-out: IC50, effect on cell proliferation
Experimental: For the in vitro cell proliferation assay, between 2.5 and 5×10^4 of U87 or A549 cells were seeded in a 24 well tissue culture microplate in a final volume of 1 ml of medium with 10% serum and incubated for 24 hours at 37° C. and 5% CO2. The medium was then replaced with serum-free medium and incubated overnight. The next morning the drug was freshly dissolved in dimethyl sulfoxide (DMSO) and the medium was replaced with complete medium containing the drug at different concentrations in triplicates. The final concentration of DMSO was 0.1%. The control used is a microplate well with cells and without drug. The cells were incubated for 48 to 72 hrs at 37° C. and 5% CO2. After the incubation, the medium was changed and replaced with 1 ml of complete medium containing [^3H]-thymidine (1 μCi/assay). The plate was incubated at 37° C. and 5% CO2 for 4 hrs. The medium was removed and the cells washed with PBS heated at 37° C. The cells were fixed with a mix of ethanol:acetic acid (3;1), then washed with water and precipitated 3 times with 10% of ice-cold TCA (trichloroacetic acid). […] The contents of each well was then transferred in a scintillation vial with 10 ml of scintillation cocktail and the activity was measured in CPM (count per minute) on a liquid scintillation counter Tri-Carb from Packard. […]

[10] = system: SK-HEP-1 hepatocarcinoma cells; test: In vitro cytotoxicity, SK-HEP-1; format: cell-based, human
[11] = system: BT-474 breast cancer cell line; test: In vitro cytotoxicity, BT-474; format: cell-based
[12] = Tissue distribution and pharmacokinetics after i.v. bolus (AUC0-4); format: in vivo, mice; conditions: equivalent to 5 mg/kg of Taxol
Experimental: The unconjugated anticancer drug and the conjugates were injected intra-veinously (i.v.) in mice as a bolus. Tissues were collected at different times (0.25, 0.5, 1 and 4 hrs) and homogenized. […] Radioactivity associated with the tissues was therefore quantified. The area under the curve (AUC0-4) was estimated using the Prism software and was plotted for the different tissues (FIG. 10).

[13] = comparator products; data based on rat GLP toxicity programs; cited from earlier work
[14] = system: Calu-3 lung carcinoma cells; test: Cell proliferation assay, Calu-3; format: cell-based; conditions: Homo sapiens, read-out: IC50, effect on cell proliferation
P-gp (human MDR1) = P-gp (human MDR1) (Homo sapiens, UniProt P08183); test: Accumulation in MDCK-MDR1 cells with or without cyclosporin A (P-gp substrate test)
Experimental: In order to determine whether the conjugates of the present invention were P-gp substrates or not, MDCK cells were stably transfected with human MDR1 (MDCK-MDR1) and were subsequently incubated with unconjugated-anticancer drug or with the conjugates of the present invention. […] After the incubation, cells were washed and accumulation of radioactivity inside the cells or intracellular fluorescence was quantified. The increased in the accumulation of these drugs is expressed in term of x-fold compared to their respective control measured in the absence of CsA. Thus, the control value for each drug was set to 1-fold.

U-87 glioblastoma cells = test: Cell proliferation assay ([3H]-thymidine incorporation), U-87; format: cell-based, human; conditions: for IC50: Homo sapiens
Experimental: For the in vitro cell proliferation assay, between 2.5 and 5×10^4 of U87 or A549 cells were seeded in a 24 well tissue culture microplate in a final volume of 1 ml of medium with 10% serum and incubated for 24 hours at 37° C. and 5% CO2. The medium was then replaced with serum-free medium and incubated overnight. The next morning the drug was freshly dissolved in dimethyl sulfoxide (DMSO) and the medium was replaced with complete medium containing the drug at different concentrations in triplicates. The final concentration of DMSO was 0.1%. The control used is a microplate well with cells and without drug. The cells were incubated for 48 to 72 hrs at 37° C. and 5% CO2. After the incubation, the medium was changed and replaced with 1 ml of complete medium containing [^3H]-thymidine (1 μCi/assay). The plate was incubated at 37° C. and 5% CO2 for 4 hrs. The medium was removed and the cells washed with PBS heated at 37° C. The cells were fixed with a mix of ethanol:acetic acid (3;1), then washed with water and precipitated 3 times with 10% of ice-cold TCA (trichloroacetic acid). Finally 500 μl of PCA (perchloric acid) were added to the wells and the microplates were heated for 30 min at 65° C. and 30 min at 75° C. The contents of each well was then transferred in a scintillation vial with 10 ml of scintillation cocktail and the activity was measured in CPM (count per minute) on a liquid scintillation counter Tri-Carb from Packard.
The anti-proliferatice activity of the conjugate against cancer cells in vitro was further assessed.

LRP = target: T1, LRP (Mus musculus, UniProt Q91ZX7); test: [125I]-RAP uptake in MEF-1 (LRP+) and PEA-13 (LRP-) fibroblasts; format: cell-based
T1 construct: endogenous in cells; host or cells: MEF-1 fibroblasts (LRP-positive), with PEA-13 fibroblasts (LRP-negative) as subtraction control
Experimental: The LRP-dependent accumulation of [^125I]-RAP was calculated by substracted the results for the uptake obtained with PEA-13 cells from the results obtained with MEF-1;

[15] = In situ mouse brain perfusion; conditions: 5 min perfusion, [125I]-labelled, FIG. 7
Experimental: as §1, §2

[16] = various aprotinin concentrations

T1 sequence (Q91ZX7 20-4545): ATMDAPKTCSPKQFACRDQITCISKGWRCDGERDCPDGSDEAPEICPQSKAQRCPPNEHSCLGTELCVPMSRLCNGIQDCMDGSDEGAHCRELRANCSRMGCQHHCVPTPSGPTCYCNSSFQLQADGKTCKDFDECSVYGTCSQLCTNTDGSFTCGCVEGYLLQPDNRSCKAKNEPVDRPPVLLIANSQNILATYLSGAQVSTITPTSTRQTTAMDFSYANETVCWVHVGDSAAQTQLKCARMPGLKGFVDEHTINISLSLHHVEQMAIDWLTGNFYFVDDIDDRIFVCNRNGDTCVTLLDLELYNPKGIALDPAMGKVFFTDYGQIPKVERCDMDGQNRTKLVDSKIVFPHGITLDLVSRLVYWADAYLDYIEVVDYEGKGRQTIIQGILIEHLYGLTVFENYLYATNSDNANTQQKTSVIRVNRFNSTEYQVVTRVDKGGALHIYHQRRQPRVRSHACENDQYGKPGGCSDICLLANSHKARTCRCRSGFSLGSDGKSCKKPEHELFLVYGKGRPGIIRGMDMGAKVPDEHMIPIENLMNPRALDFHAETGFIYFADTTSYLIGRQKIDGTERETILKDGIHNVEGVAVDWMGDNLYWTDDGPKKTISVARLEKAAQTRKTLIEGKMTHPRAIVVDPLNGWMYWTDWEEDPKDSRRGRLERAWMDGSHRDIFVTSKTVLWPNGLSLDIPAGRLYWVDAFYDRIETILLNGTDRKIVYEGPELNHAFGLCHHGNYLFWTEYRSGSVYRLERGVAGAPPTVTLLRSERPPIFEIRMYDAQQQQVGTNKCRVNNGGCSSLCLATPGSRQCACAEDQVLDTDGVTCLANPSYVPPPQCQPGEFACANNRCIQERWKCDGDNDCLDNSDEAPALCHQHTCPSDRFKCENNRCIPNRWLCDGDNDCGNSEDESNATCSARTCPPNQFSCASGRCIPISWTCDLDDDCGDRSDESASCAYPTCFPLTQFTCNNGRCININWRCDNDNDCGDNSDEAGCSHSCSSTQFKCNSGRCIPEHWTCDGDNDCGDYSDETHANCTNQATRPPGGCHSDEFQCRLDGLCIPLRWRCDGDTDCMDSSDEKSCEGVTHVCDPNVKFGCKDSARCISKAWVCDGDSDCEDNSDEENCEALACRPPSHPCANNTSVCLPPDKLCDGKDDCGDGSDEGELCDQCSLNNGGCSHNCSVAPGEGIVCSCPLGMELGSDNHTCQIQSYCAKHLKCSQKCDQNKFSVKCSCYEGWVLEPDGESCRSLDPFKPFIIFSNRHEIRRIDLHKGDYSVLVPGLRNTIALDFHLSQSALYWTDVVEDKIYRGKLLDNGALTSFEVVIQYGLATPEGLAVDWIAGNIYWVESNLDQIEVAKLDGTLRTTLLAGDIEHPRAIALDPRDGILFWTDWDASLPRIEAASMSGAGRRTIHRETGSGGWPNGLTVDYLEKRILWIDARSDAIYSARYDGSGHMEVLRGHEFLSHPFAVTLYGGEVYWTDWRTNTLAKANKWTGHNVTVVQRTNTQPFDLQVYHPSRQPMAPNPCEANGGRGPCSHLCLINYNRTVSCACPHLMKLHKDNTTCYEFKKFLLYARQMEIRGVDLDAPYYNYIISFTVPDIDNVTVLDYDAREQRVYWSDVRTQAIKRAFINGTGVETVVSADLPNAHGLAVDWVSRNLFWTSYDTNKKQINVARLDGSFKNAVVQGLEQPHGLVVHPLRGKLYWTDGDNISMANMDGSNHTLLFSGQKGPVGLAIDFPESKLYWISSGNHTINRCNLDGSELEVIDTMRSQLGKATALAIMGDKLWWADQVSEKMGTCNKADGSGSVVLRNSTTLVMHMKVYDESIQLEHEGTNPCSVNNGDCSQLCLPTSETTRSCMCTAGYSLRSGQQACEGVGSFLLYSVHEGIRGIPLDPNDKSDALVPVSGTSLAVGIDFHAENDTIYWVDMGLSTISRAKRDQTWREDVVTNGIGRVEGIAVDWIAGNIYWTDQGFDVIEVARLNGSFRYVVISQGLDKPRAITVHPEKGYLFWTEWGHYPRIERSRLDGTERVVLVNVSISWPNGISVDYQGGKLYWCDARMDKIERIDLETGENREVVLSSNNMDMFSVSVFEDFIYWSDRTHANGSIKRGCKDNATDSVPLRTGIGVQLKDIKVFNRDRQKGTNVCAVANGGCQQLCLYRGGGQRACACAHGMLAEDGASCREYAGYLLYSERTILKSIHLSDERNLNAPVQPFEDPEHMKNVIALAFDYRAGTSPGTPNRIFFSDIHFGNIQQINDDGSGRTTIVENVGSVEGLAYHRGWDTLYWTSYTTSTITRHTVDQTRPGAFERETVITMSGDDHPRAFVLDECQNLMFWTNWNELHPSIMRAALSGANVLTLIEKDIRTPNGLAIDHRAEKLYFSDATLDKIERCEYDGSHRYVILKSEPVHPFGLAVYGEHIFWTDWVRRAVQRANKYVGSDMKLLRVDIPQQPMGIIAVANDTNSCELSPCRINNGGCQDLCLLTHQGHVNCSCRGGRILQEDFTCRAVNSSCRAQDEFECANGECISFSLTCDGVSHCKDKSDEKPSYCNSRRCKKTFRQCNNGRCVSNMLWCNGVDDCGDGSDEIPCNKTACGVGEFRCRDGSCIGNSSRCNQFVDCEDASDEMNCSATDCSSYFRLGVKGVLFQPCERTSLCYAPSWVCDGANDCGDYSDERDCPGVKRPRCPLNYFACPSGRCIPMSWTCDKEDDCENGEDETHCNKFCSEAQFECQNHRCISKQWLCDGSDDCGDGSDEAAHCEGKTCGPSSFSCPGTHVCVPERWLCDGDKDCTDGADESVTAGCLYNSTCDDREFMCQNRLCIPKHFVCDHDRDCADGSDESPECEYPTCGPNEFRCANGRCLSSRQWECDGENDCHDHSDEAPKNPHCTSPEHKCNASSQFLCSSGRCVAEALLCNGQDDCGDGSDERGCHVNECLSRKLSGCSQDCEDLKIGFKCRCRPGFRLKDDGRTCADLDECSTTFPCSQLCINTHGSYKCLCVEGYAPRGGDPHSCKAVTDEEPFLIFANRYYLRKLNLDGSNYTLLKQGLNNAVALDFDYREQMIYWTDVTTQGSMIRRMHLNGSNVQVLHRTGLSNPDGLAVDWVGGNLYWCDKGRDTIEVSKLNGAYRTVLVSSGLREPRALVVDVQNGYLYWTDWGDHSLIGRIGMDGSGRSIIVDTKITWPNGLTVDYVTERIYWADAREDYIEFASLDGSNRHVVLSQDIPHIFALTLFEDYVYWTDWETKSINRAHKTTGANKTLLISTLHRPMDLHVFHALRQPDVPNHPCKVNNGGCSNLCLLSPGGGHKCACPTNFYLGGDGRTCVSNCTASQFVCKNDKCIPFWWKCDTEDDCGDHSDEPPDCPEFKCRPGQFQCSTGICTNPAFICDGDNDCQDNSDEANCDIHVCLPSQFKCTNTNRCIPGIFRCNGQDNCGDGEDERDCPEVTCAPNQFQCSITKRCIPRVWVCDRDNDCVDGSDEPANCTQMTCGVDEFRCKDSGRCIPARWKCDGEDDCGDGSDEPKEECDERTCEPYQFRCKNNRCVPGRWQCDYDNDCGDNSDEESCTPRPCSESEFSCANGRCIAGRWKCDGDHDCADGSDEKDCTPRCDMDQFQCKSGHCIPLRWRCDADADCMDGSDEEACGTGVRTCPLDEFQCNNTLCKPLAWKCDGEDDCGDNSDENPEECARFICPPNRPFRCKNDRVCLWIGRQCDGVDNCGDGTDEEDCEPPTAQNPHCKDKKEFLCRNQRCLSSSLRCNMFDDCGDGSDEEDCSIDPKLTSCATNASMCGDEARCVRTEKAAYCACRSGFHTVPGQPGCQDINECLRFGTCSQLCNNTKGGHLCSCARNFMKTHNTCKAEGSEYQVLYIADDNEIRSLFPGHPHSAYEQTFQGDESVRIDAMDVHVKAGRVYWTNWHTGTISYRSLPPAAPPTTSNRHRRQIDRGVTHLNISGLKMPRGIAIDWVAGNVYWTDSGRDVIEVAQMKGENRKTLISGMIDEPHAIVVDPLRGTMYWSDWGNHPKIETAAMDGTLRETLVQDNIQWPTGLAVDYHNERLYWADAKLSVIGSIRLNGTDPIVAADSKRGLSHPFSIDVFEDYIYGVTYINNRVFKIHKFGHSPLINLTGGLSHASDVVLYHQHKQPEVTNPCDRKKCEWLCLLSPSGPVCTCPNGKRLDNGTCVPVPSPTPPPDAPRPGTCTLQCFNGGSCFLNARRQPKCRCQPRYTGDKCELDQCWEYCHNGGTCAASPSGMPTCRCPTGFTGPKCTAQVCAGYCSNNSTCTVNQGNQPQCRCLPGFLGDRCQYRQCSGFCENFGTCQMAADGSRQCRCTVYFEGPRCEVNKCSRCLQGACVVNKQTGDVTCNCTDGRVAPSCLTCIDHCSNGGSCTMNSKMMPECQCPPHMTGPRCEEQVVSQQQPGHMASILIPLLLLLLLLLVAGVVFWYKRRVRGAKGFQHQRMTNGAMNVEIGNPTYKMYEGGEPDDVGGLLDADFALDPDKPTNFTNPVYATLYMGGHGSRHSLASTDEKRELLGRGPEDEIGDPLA

Compound: C[C@@H](O)[C@H](N)C(=O)N[C@@H](Cc1ccccc1)C(=O)N[C@@H](Cc1ccccc1)C(=O)N[C@@H](Cc1ccc(O)cc1)C(=O)NCC(=O)NCC(=O)N[C@@H](CO)C(=O)N[C@@H](CCCNC(=N)N)C(=O)NCC(=O)N[C@@H](CCCCN)C(=O)N[C@@H](CCCNC(=N)N)C(=O)N[C@@H](CC(N)=O)C(=O)N[C@@H](CC(N)=O)C(=O)N[C@@H](Cc1ccccc1)C(=O)N[C@@H](CCCCN)C(=O)N[C@H](C(=O)N[C@@H](CCC(=O)O)C(=O)N[C@@H](CCC(=O)O)C(=O)N[C@@H](Cc1ccc(O)cc1)C(=O)O)[C@@H](C)O [Angiopep-2]
- Accumulation into brain parenchyma compared with vascular marker [14C]-inulin [1]: higher than that of the vascular marker

Compound: CC(=O)O[C@H]1C(=O)[C@@]2(C)[C@H]([C@H](OC(=O)c3ccccc3)[C@]3(O)C[C@H](OC(=O)[C@H](O)[C@@H](NC(=O)c4ccccc4)c4ccccc4)C(C)=C1C3(C)C)[C@]1(OC(C)=O)CO[C@@H]1C[C@@H]2O [Taxol]
- Residual survival % Mean [2]: 48.82%
- IC50 ([2]; Homo sapiens): 6.12 nM
- IC50 [3]: 137 nM
- Residual survival % Mean [4]: 45.62%
- IC50 ([4]; Homo sapiens): 17.6 nM
- IC50 (U-118 glioblastoma cells): 7.2 nM
- Effect on cell cycle (NCI-H460 cell-cycle): induce a blockade of NCI-H460 cell in G2/M phase
- Platelets ([5]; 4-days post-treatment): 200 ×109 cells/L
- Reticulocytes ([5]; 4-days post-treatment): 0.011 ×1012 cells/L
- White Blood Cells ([5]; 4-days post-treatment): 4.3 ×109 cells/L
- Platelets ([5]; 8-days post treatment): 340 ×109 cells/L
- Reticulocytes ([5]; 8-days post treatment): 0.11 ×1012 cells/L
- White Blood Cells ([5]; 8-days post treatment): 8.7 ×109 cells/L
- Platelets ([5]; Pre-treatment): 250 ×109 cells/L
- Reticulocytes ([5]; Pre-treatment): 0.031 ×1012 cells/L
- White Blood Cells ([5]; Pre-treatment): 9.7 ×109 cells/L
- Residual survival % Mean [6]: 54.26%
- IC50 ([6]; Homo sapiens): 13.5 nM
- IC50 ([7]; NCI-H460, read-out: IC50, effect on cell proliferation): 9.3 nM
- IC50 ([7]; NCI-H460, Table 3B, read-out: IC50 (nM) Mean): 6.61 nM
- Residual survival % Mean ([7]; NCI-H460): 24.98%
- Tumor growth Δ ([8]; Day 0 to Day 11): 371 ± 58 mm^3
- T/C ([8]; Day 11): 62%
- Tumor volume, Day 0 ([8]; baseline, equivalent of 10 mg/kg of Taxol): 112 ± 12 mm^3
- Tumor volume, Day 11 ([8]; equivalent of 10 mg/kg of Taxol, twice a week): 483 ± 63 mm^3
- IC50 [9]: 3.6 nM
- Residual survival % Mean [10]: 55.18%
- IC50 ([10]; Homo sapiens, SK-HEP1): 8.84 nM
- Residual survival % Mean [11]: 52.24%
- IC50 ([11]; Homo sapiens, Table 3B): 62.9 nM
- AUC 0-4 ([12]; Brain): 0.07 μg/g of tissue
- AUC 0-4 ([12]; Eye): 0.57 μg/g of tissue
- AUC 0-4 ([12]; Heart): 2.5 μg/g of tissue
- AUC 0-4 ([12]; Kidney): 8.0 μg/g of tissue
- AUC 0-4 ([12]; Liver): 22 μg/g of tissue
- AUC 0-4 ([12]; Lung): 1.1 μg/g of tissue
- MTD [13]: 8 mg/kg
- IC50 [14]: 17.2 nM
- P-gp substrate or not (P-gp (human MDR1); MDCK-MDR1): are P-gp substrates
- IC50 (U-87 glioblastoma cells; 72 h, read-out: IC50, proliferation of glioblastoma cells (U-87)): ~10 nM
- IC50 (U-87 glioblastoma cells; read-out: IC50, effect on cell proliferation): 9.5 nM
- IC50 (U-87 glioblastoma cells; U-87 MG, Table 3B, read-out: IC50 (nM) Mean): 12.9 nM
- Residual survival % Mean (U-87 glioblastoma cells; U-87 MG): 40.35%

Compound: CC[C@]1(O)C[C@@H]2CN(CCc3c([nH]c4ccccc34)[C@@](C(=O)OC)(c3cc4c(cc3OC)N(C)[C@H]3[C@@](O)(C(=O)OC)[C@H](OC(C)=O)[C@]5(CC)C=CCN6CC[C@]43[C@@H]65)C2)C1 [vinblastine]
- P-gp substrate or not (P-gp (human MDR1); MDCK-MDR1): are P-gp substrates

Compound: aprotinin
- LRP-dependent accumulation of [125I]-RAP (MEF-1 minus PEA-13) (LRP; excess, 25 μM, FIG. 18): affect the LRP-dependent accumulation of [^125I]-RAP
- Uptake of [125I]-RAP in LRP-negative cells (PEA-13) (LRP; [16]): almost unaffected
- Uptake of [125I]-RAP in LRP-positive cells (MEF-1) (LRP; [16]): inhibited the transport of [^125I]-RAP in positive LRP cells in a dose-dependent manner
- Initial brain uptake (transport rate) compared with transferrin [15]: highest initial transport rate than transferrin

Compound: rhodamine
- Increase in accumulation in the presence of CsA, x-fold of control without CsA (P-gp (human MDR1); MDCK-MDR1, 1 hr 37° C., 10 μM cyclosporin A): 7.5 fold
- P-gp substrate or not (P-gp (human MDR1); MDCK-MDR1, with or without CsA): are P-gp substrates
